Source: patent US10683487B2, “Myrmecridium flexuosum NUK-21, novel lactose oxidase isolated from Myrmecridium flexuosum NUK-21, and method for conversion of lactose into lactobionic acid by novel lactose oxidase” (NATIONAL UNIVERSITY OF KAOHSIUNG, priority 2017, dated 2020)
Where two headings read alike, the source gives them in different places.

What was measured:
[1] = test system: lactose oxidase of the NUK-21 strain; type: biochemical, Myrmecridium flexuosum NUK-21
[2] = test system: NUK-21 strain; type: cell-based, Myrmecridium flexuosum NUK-21
[3] = test system: lactose oxidase of the NUK-21 strain; test: Effects of chemicals on enzyme activity (dissolved oxygen assay); type: biochemical, Myrmecridium flexuosum NUK-21
Description: The purified enzyme was added to A buffer containing 1 mM of various chemical solution and incubated in a water bath at 30° C. for 1 hour. Dissolved oxygen assay was used to determine the enzyme activity of lactose oxidase.

[4] = test system: lactose oxidase of the NUK-21 strain; test: Substrate specificity of lactose oxidase (OD500 nm peroxidase chromogen assay); type: biochemical, Myrmecridium flexuosum NUK-21
Description: Fifty mM of various buffers with different pH values were prepared, including CH3COOH—CH3COONa (pH 4.5-5.5), K2HPO4—NaH2PO4 (pH 5.5-8.0), Tris-HCl (pH 7.0-9.0), and Na2CO3—NaHCO3 (pH 9.0-11). Enzyme activity was determined by peroxidase chromogen method (Clin Chem, 1974; 20:470-475). The substrate, buffer and enzyme were premixed and reacted for 2 minutes, and then 4-aminoantipyrine (4-AA) coloring solution was added for reaction. A spectrophotometer was used to detect the absorbance of OD500 nm at room temperature (detection at every 15 seconds for a total of 90 seconds). The principle of the 4-AA assay is that the lactose oxidase oxidized lactose to lactobionic acid, which reduces dissolved oxygen to hydrogen peroxide, and the hydrogen peroxide, phenol, and 4-AA were catalyzed by the peroxidase to produce a red quinoneimine structure and show a stable signal at OD 500 nm.
The enzyme activity was defined as the enzyme concentration that produces 1 μmole hydrogen peroxide per minute. […] Calculation of enzyme activity: unit/ml=(ΔA500 nm/t)×(Vt/6.8)×(1/Ve)×n, in which ΔA500 nm:A500 nm variation in t minutes, 6.8: absorption coefficient of chromogenic material (mM^−1 cm^−1), Vt: total reaction volume, Ve: volume of enzyme was added, and n: fold of dilution of enzyme solution.
A spectrophotometer was used to detect the absorbance of OD500 nm at room temperature (detection at every 15 seconds for a total of 90 seconds), and the enzyme activity was determined.

[5] = test system: carbohydrate oxidases; conditions: cited from earlier work
[6] = test system: carbohydrate oxidases from different strains; conditions: cited from earlier work
[7] = metal ions 1 mM, 30° C., 1 hour, 0.7 mM lactose
[8] = metal ions 0.01%, 4% wheat bran medium, 30° C., 4 days

O=[N+]([O-])[O-].[Ag+] [AgNO3]
Relative activity [1, 7]: 107.9%
Enzyme activity [2, 8]: 0.28 unit/ml

O=S(=O)([O-])[O-].O=S(=O)([O-])[O-].O=S(=O)([O-])[O-].[Fe+3].[Fe+3] [Fe2(SO4)3]
Enzyme activity [2, 8]: 0.25 unit/ml

c1cnc2c(c1)ccc1cccnc12 [1,10-phenanthroline]
Relative activity ([3]; chemical 1 mM, 30° C., 1 hour): 98.8%

O=S(=O)([O-])[O-].O=S(=O)([O-])[O-].O=S(=O)([O-])[O-].[Al+3].[Al+3] [Al2(SO4)3]
Enzyme activity [2, 8]: 0.37 unit/ml

O=S(=O)([O-])[O-].[Cu+2] [CuSO4]
Relative activity [1, 7]: 96.8%
Enzyme activity [2, 8]: 0.61 unit/ml

OC[C@@H](O)[C@@H](O)[C@H](O)[C@@H](O)CO [Sorbitol]
Relative activity ([4]; 0.7 mM substrate): 0%
Relative activity ([4]; 7 mM substrate): 0%

[Cl][Sn][Cl] [SnCl2]
Relative activity [1, 7]: 61.3%
Relative activity ([1]; metal ions 1 mM, 30° C., 1 hour, 0.7 mM lactose, listed as Sn^2+): 89.7%

OC[C@@H](O)[C@H](O)[C@@H](O)CO [Xylitol]
Relative activity ([4]; 0.7 mM substrate): 0%
Relative activity ([4]; 7 mM substrate): 0%

O=S(=O)([O-])[O-].[Ni+2] [NiSO4]
Relative activity [1, 7]: 100%

OC[C@H]1O[C@@](CO)(O[C@H]2O[C@H](CO)[C@@H](O)[C@H](O)[C@H]2O)[C@@H](O)[C@@H]1O [Sucrose]
Relative activity ([4]; 0.7 mM substrate): 0%
Relative activity ([4]; 7 mM substrate): 0%

O=C(O)[C@H](O)[C@@H](O)[C@H](O[C@@H]1O[C@H](CO)[C@H](O)[C@H](O)[C@H]1O)[C@H](O)CO [lactobionic acid]
Relative activity ([4]; 0.7 mM substrate): 0%
Relative activity ([4]; 7 mM substrate): 0%

[N-]=[N+]=[N-].[Na+] [NaN3]
effect on enzyme activity (in words) ([3]; chemical 1 mM): activated
Relative activity ([3]; chemical 1 mM, 30° C., 1 hour): 131.3%

O=C(CO)[C@@H](O)[C@H](O)[C@H](O)CO [Fructose]
Relative activity ([4]; 0.7 mM substrate): 0%
Relative activity ([4]; 7 mM substrate): 0%

[Cl][Pb][Cl] [PbCl2]
Relative activity [1, 7]: 89.7%
Enzyme activity [2, 8]: 0.29 unit/ml

O=C[C@H](O)[C@@H](O)[C@H](O[C@@H]1O[C@H](CO)[C@@H](O)[C@H](O)[C@H]1O)[C@H](O)CO [Cellobiose]
Relative activity ([4]; 0.7 mM substrate): 83.4%
Relative activity ([4]; 7 mM substrate): 81.7%

[Cl][Ni][Cl] [NiCl2]
Enzyme activity [2, 8]: 0.43 unit/ml

O=S(=O)([O-])[O-].[Cd+2] [CdSO4]
Relative activity [1, 7]: 100%
Enzyme activity [2, 8]: 0.42 unit/ml

OO [H2O2]
Relative activity ([3]; chemical 1 mM, 30° C., 1 hour): 100%

O=S(=O)([O-])[O-].[Mn+2] [MnSO4]
Enzyme activity [2, 8]: 0.37 unit/ml

[Cl][Fe]([Cl])[Cl] [FeCl3]
Relative activity [1, 7]: 103.2%
Enzyme activity [2, 8]: 0.27 unit/ml

O=C[C@H](O)[C@@H](O)[C@H](O)CO [Xylose]
Relative activity ([4]; 0.7 mM substrate): 0%
Relative activity ([4]; 7 mM substrate): 0%

O=S(=O)(F)Cc1ccccc1 [PMSF]
Relative activity ([3]; chemical 1 mM, 30° C., 1 hour): 104.9%

O=C(O)CN(CCN(CC(=O)O)CC(=O)O)CC(=O)O [EDTA]
Relative activity [3]: 136.3%
effect on enzyme activity (in words) [3]: activated

OC[C@H]1O[C@H](O[C@H]2[C@H](O)[C@@H](O)[C@H](O)O[C@@H]2CO)[C@H](O)[C@@H](O)[C@@H]1O [Maltose]
Relative activity ([4]; 0.7 mM substrate): 4.1%
Relative activity ([4]; 7 mM substrate): 24.8%

O=C(CBr)c1ccc(Br)cc1 [2,4′-dibromoacetophenone]
Relative activity ([3]; chemical 1 mM, 30° C., 1 hour): 99%

CCN1C(=O)C=CC1=O [N-ethylmaleimide]
effect on enzyme activity (in words) ([3]; chemical 1 mM): activated
Relative activity ([3]; chemical 1 mM, 30° C., 1 hour): 139.5%

O=C[C@H](O)[C@@H](O)[C@@H](O)[C@H](O)CO [Galactose]
Relative activity ([4]; 0.7 mM substrate): 0%
Relative activity ([4]; 7 mM substrate): 1.8%

O=S(=O)([O-])[O-].[Fe+2] [FeSO4]
Relative activity [1, 7]: 61.1%
Relative activity ([1]; metal ions 1 mM, 30° C., 1 hour, 0.7 mM lactose, listed as Fe^2+): 61.3%

[Cl][Hg][Cl] [HgCl2]
Relative activity [1, 7]: 153.8%
Enzyme activity [2, 8]: 0.02 unit/ml

[Cl][Sn]([Cl])([Cl])[Cl] [SnCl4]
Enzyme activity [2, 8]: 0.32 unit/ml

[Ca+2].[Cl-].[Cl-] [CaCl2]
Relative activity [1, 7]: 109.5%
Enzyme activity [2, 8]: 0.20 unit/ml

O=S(=O)([O-])[O-].[K+].[K+] [K2SO4]
Enzyme activity [2, 8]: 0.26 unit/ml

[Cl-].[Cl-].[Co+2] [CoCl2]
Relative activity [1]: 110.2%
Enzyme activity [2]: 0.26 unit/ml

OC[C@H]1O[C@@H](O[C@H]2[C@H](O)[C@@H](O)C(O)O[C@@H]2CO)[C@H](O)[C@@H](O)[C@H]1O (stereo partly shown) [Lactose]
Relative activity ([4]; 0.7 mM substrate): 100%
Relative activity ([4]; 7 mM substrate): 100%

O=S(=O)([O-])[O-].[Zn+2] [ZnSO4]
Enzyme activity [2, 8]: 0.22 unit/ml

O=S(=O)([O-])[O-].[Na+].[Na+] [Na2SO4]
Enzyme activity [2, 8]: 0.26 unit/ml

B1: Glucooligosaccharide oxidase: carbohydrate oxidase from Acremonium strictum (protein, UniProt Q6PW77 26-499, looked up)
Glucooligosaccharide oxidase: NSINACLAAADVEFHEEDSEGWDMDGTAFNLRVDYDPAAIAIPRSTEDIAAAVQCGLDAGVQISAKGGGHSYGSYGFGGEDGHLMLELDRMYRVSVDDNNVATIQGGARLGYTALELLDQGNRALSHGTCPAVGVGGHVLGGGYGFATHTHGLTLDWLIGATVVLADASIVHVSETENADLFWALRGGGGGFAIVSEFEFNTFEAPEIITTYQVTTTWNRKQHVAGLKALQDWAQNTMPRELSMRLEINANALNWEGNFFGNAKDLKKILQPIMKKAGGKSTISKLVETDWYGQINTYLYGADLNITYNYDVHEYFYANSLTAPRLSDEAIQAFVDYKFDNSSVRPGRGWWIQWDFHGGKNSALAAVSNDETAYAHRDQLWLWQFYDSIYDYENNTSPYPESGFEFMQGFVATIEDTLPEDRKGKYFNYADTTLTKEEAQKLYWRGNLEKLQAIKAKYDPEDVFGNVVSVEPIA
optimum pH [5]: 10
Substrate specificity ([6]; cellobiose): 120%
Substrate specificity ([6]; lactose): 100%
Km ([6]; substrate cellobiose): 120 µM
Km ([6]; substrate lactose): 380 µM
